# Measurements published in patent US20240299698A1, “PREVENTION AND TREATMENT OF POST-OPERATIVE COGNITIVE DYSFUNCTION (POCD)” (Noetix Pharma LLC, priority 2022, published 2024).
# What was measured:
# mouse model of (POCD) = assay: Morris water maze testing and probe trial in laparotomy mouse model of POCD; format: in vivo, Male C57BI/6 mice; conditions: PSD7
# Source text: To induce POCD, mice were anesthetized with isoflurane and maintained at a surgical plane of anesthesia (2-2.5%). The abdomen was shaved and cleaned/disinfected with both betadine and ethanol (70%). A 1.5 cm vertical incision was made along the midline of the abdomen, perforating the skin and the peritoneal cavity. A sterile blunt probe was inserted into the cavity, and the abdominal viscera and musculature were manipulated for five minutes. Abdominal muscles and skin were sutured, polysporin and topical lidocaine were applied to the incision site, and buprenorphine (0.1 mg/kg s.c.) was administered. Animals were placed into a clean, pre-warmed home cage for recovery and housed singly thereafter.
# Morris water maze testing is a well-established method for evaluating spatial learning and memory. To navigate this maze, the mouse must use extra-maze cues to locate a hidden platform and escape from the water. Testing was performed on PSD7. Mice were given two blocks of four 60 sec trials to find the hidden platform, with latency to reach the platform compared between blocks as a measure of learning/memory processes. Swim speed was evaluated to assess locomotor capabilities. On PSD8 (i.e., 24 hours later), mice were reintroduced into the maze without the platform present for a one-minute probe trial to assess reference memory.
# The testing protocol was as follows: 1. The animal was brought into the testing room in a transfer cage. 2. Video recording was begun and the animal's ID card recorded. 3. The mouse was gently placed (i.e., not dropped) into the water at the appropriate start location (N, S, E, or W) facing the pool wall. 4. For 60 seconds, the mouse was allowed to locate and climb onto the submerged platform. If the mouse was unable to locate the platform within the allotted time, it was gently guided there and assigned a score of 61 seconds. 5. The mouse was allowed 60 seconds to recover on the platform and observe the extra-maze cues. If the moused jumped into the water, it was immediately retrieved and placed back on the platform for the remaining duration of the inter-trial interval. 6. Steps 3-5 were repeated for a total of 4 trials (Block 1). 7. The mouse was returned to the transfer cage lined with a dry towel. It was allowed 5 minutes to rest. 8 Steps 3-5 were repeated for a total of 4 trials (Block 2). 9. The mouse was gently dried and returned to its home cage.
# The probe session was conducted as follows: 1. The animal was brought into the testing room in a transfer cage. 2. Video recording was begun and the animal's ID card recorded. 3. The mouse was gently placed (i.e., not dropped) into the water at the appropriate start location (N, S, E, or W) facing the pool wall. 4. The mouse was allowed to swim freely for 60 seconds. 5. The mouse was gently dried and returned to its home cage.
# [1] = tested on: hippocampal microglial cells; assay: Evaluation of hippocampal microglial cell morphology (Iba1 immunohistochemistry); format: in vivo, Male C57BI/6 mice; conditions: for Iba1-positive microglial cell morphology (activated characteristics), rank 0-2: 8 days post-surgery, n=8
# Method: A subset of mice was evaluated to compare acute and chronic treatment of pirfenidone paradigms against Normal Control and Disease Control tissues (n=8/treatment group). A neuroinflammation marker, ionizing calcium binding adaptor molecule 1 (Iba1), was investigated in the hippocampus as an indication of the level of inflammatory response. The hippocampus is particularly vulnerable to both acute and chronic stressors, including those triggered by physical trauma.
# The right hemispheres of a subsection of study mice were evaluated via fluorescent IHC analysis to investigate the impact of laparotomy and drug intervention on hippocampal inflammatory mechanisms. Iba1 was assessed as a marker of neuroinflammation because it is indicative of inflammatory response in the central nervous system.
# Cryoprotected hemispheres were blocked in OCT compound (Thermofisher) and stored at −80° C. until sectioning. […]
# • To obtain micrographs for quantification • Fluorescent microscope (Zeiss Axio Observer Z1) Apotome.2 imaging system Zeiss imaging software (Zen 2 Blue edition) • Settings were manually selected to allow visualization of signal on all sections (signal must be visible on low intensity sections but must not be overexposed on high intensity sections). […]
# Ionized calcium-binding adapter molecule 1 (Iba1) is a microglia-specific calcium-binding protein that participates in phagocytosis in activated microglia. […] Iba1 is thus a sensitive marker of inflammation and is quantified by measuring the intensity of the Iba1 positive signal. […]
# Hippocampal tissue from the right hemispheres was evaluated for functional cell morphology using non-parametric rank ordering of tissue as follows: • 0=normal morphology (ramified, mostly ramified) • 1=moderate morphology (ramified-activated) • 2=activated morphology (activated, activated ameboid, ameboid)
structure (smiles),measurement,setting,value
"Cc1ccc(=O)n(-c2ccccc2)c1 [pirfenidone, 5-methyl-1-phenyl-2-(1H)-pyridone]","latency to platform, overall (block x treatment)","mouse model of (POCD); Acute vs Disease Controls, p=0.028",statistically significant decrease in latency to platform
same,"latency to platform, Block 1","mouse model of (POCD); Acute vs Disease Controls, p=0.04, Tukey's HSD",found the platform faster than Disease Controls only
same,decrease in time to platform between blocks (spatial memory),"mouse model of (POCD); Acute, p=0.61, paired t-test",not seen
same,"latency to platform, Block 1","mouse model of (POCD); Chronic compared to both Disease and Normal Controls, p=0.02 and p=0.03, Tukey's HSD",statistically significant decrease in latency to platform
same,"latency to platform, overall (block x treatment)","mouse model of (POCD); Chronic vs Disease Controls, p=0.052",statistically significant decrease in latency to platform
same,decrease in time to platform between blocks (spatial memory),"mouse model of (POCD); Chronic, p=0.54, paired t-test",not seen
same,"latency to platform, Block 2, between groups","mouse model of (POCD); all groups, p=0.117, one-way ANOVA",no between groups main effect
same,"Iba1-positive microglial cell morphology (activated characteristics), rank 0-2",[1]; Acute,reduced this microglial activation
same,"Iba1-positive microglial cell morphology (activated characteristics), rank 0-2",[1]; Chronic,reduced this microglial activation
same,microglial activation in the hippocampus (summary),"[1]; summary statement, regimen not distinguished",reduced microglial activation in the hippocampus
